In patent publication US11845751B2, “Triazolotriazine derivatives as A2A receptor antagonists” (ZHEJIANG VIMGREEN PHARMACEUTICALS, LTD., priority 2018, dated 2023):

Each molecule was assayed against T1, A2AR (hADORA2A-HEK293 cells) (Homo sapiens, UniProt P29274) (assay: functional cAMP production assay: NECA stimulation of cAMP production and its inhibition by A2AR antagonists). Details: not given.
T1 construct: expressed in transfected cells; host or cells: HEK293 (hADORA2A-HEK293)
Type: cell-based
Description: The antagonistic activities of the triazolotriazine derivatives of the present invention were measured in a functional cAMP production assay. The assay consists of NECA stimulation of cAMP production and its inhibition by A2AR antagonists in A2AR-expressing HEK293 cells (hADORA2A-HEK293). All cells were cultured in complete medium at 37° C. in 5% CO2. The cells were detached with pancreatin and collected at 200 g for 5 min. After resuspending the cells in fresh complete medium, the cell viability is counted using the trypan blue exclusion method. […] After the cells were diluted with Hank's buffered saline solution containing HEPES (5 mM), BSA stabilizer (0.1%) and […] Rolipram (10 μM), cells were loaded into white opaque 384-well plates (˜500 cells/well, 10 μl/well) and incubated with test compound at a suitable concentration range (11 concentrations) for 20 min at room temperature. Then the A2A receptor agonist NECA (final concentration=EC80, which was determined in the same experiment slightly earlier) was added to the sample and the mixture was incubated again for 30 min at 37° C. […] The inhibition rate (%) was calculated according to the following formula. The IC50 values were calculated from concentration-inhibition (%) curves after log transformation.

T1 sequence (P29274 whole entry): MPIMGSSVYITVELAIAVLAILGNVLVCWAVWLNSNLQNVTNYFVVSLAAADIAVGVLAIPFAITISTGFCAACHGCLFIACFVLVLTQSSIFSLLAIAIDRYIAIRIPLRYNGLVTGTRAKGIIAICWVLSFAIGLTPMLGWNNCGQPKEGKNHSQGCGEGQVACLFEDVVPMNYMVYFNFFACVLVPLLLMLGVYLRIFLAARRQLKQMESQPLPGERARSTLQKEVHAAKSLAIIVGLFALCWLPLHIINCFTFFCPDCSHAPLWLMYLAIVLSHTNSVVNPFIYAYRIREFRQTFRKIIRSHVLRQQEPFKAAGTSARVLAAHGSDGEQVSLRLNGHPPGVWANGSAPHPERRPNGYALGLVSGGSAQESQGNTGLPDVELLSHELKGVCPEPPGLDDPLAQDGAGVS

SMILES | IC50 [nM]
Nc1nc(NCCc2ccc(OCCN3CC3)cc2)nc2nc(-c3ccco3)nn12 [Example 124, N5-(4-(2-(Aziridin-1-yl)ethoxy)phenethyl)-2-(furan-2-yl)-[1,2,4]triazolo[1,5-a][1,3,5]triazine-5,7-diamine] | 8.4

Same assay, conditions: A2AR-expressing HEK293 cells (hADORA2A-HEK293); NECA at EC80; TR-FRET cAMP readout; read-out: A2AR Potency (IC50, inhibition of NECA-stimulated cAMP production)

IC50 [nM] | SMILES
11.5 | Nc1nc(NCCc2ccc(NC(=O)CN3CCOCC3)cc2)nc2nc(-c3ccco3)nn12 [Example 320, N-(4-(2-((7-Amino-2-(furan-2-yl)-[1,2,4]triazolo[1,5-a][1,3,5]triazin-5-yl)amino)ethyl)-phenyl)-2-morpholinoacetamide]
17.5 | CN(C)C1CN(CCOc2ccc(CCNc3nc(N)n4nc(-c5ccco5)nc4n3)cc2)C1 [Example 162, N5-(4-(2-(3-(Dimethylamino)azetidin-1-yl)ethoxy)phenethyl)-2-(furan-2-yl)-[1,2,4]triazolo[1,5-a][1,3,5]triazine-5,7-diamine]
8 | Nc1nc(NCCc2ccc(OCc3ccccn3)cc2)nc2nc(-c3ccco3)nn12 [Example 26, 2-(Furan-2-yl)-N5-(4-(pyridin-2-ylmethoxy)phenethyl)-[1,2,4]triazolo[1,5-α][1,3,5]triazine-5,7-diamine]
20 | Nc1nc(NCCc2ccc(NC(=O)CCN3CCCC3)cc2)nc2nc(-c3ccco3)nn12 [Example 226, N-(4-(2-((7-Amino-2-(furan-2-yl)-[1,2,4]triazolo[1,5-a][1,3,5]triazin-5-yl)amino)ethyl)-phenyl)-3-(pyrrolidin-1-yl)propanamide]
129 | Nc1nc(NCCc2c[nH]cn2)nc2nc(-c3ccco3)nn12 [Example 42, N5-(2-(1H-Imidazol-4-yl)ethyl)-2-(furan-2-yl)-[1,2,4]triazolo[1,5-α][1,3,5]triazine-5,7-diamine]
32.3 | COCCOCCOCCOCCOCCOc1ccc(CCNc2nc(N)n3nc(-c4ccco4)nc3n2)cc1 [Example 74, N5-(4-(2,5,8,11,14-Pentaoxahexadecan-16-yloxy)phenethyl)-2-(furan-2-yl)-[1,2,4]triazolo[1,5-α][1,3,5]triazine-5,7-diamine]
11.1 | Nc1nc(NCCc2ccc(NCCN3CCOCC3)cc2)nc2nc(-c3ccco3)nn12 [Example 318, 2-(Furan-2-yl)-N5-(4-((2-morpholinoethyl)amino)phenethyl)-[1,2,4]triazolo[1,5-a][1,3,5]triazine-5,7-diamine]
24 | Nc1nc(NCCc2ccc(OCCN3CCCC3)cc2)nc2nc(-c3ccco3)nn12 [Example 16, 2-(Furan-2-yl)-N5-(4-(2-(pyrrolidin-1-yl)ethoxy)phenethyl)-[1,2,4]triazolo[1,5-α][1,3,5]-triazine-5,7-diamine]
55 | COCCOCCOCCOCCOCCOCCOCCOCCOc1ccc(CCNc2nc(N)n3nc(-c4ccco4)nc3n2)cc1 [Example 109, N5-(4-(2-(2-(2-(2-(2-(2-(2-(2-Methoxyethoxy)ethoxy)ethoxy)ethoxy)ethoxy)ethoxy)ethoxy)-ethoxy)phenethyl)-2-(furan-2-yl)-[1,2,4]triazolo[1,5-a][1,3,5]triazine-5,7-diamine]
7 | COCCOc1ccc(CCNc2nc(N)n3nc(-c4ccco4)nc3n2)cc1 [Example 57, 2-(Furan-2-yl)-N5-(4-(2-methoxyethoxy)phenethyl)-[1,2,4]triazolo[1,5-α][1,3,5]triazine-5,7-diamine]
8.09 | Nc1nc(NCCc2ccc(OCCF)cc2)nc2nc(-c3ccco3)nn12 [Example 142, N5-(4-(2-Fluoroethoxy)phenethyl)-2-(furan-2-yl)-[1,2,4]triazolo[1,5-a][1,3,5]triazine-5,7-diamine]
19 | COCCOCCOCCOCCOCCOCCOCCOc1ccc(CCNc2nc(N)n3nc(-c4ccco4)nc3n2)cc1 [Example 102, N5-(4-(2-(2-(2-(2-(2-(2-(2-Methoxyethoxy)ethoxy)ethoxy)ethoxy)ethoxy)ethoxy)ethoxy)-phenethyl)-2-(furan-2-yl)-[1,2,4]triazolo[1,5-a][1,3,5]triazine-5,7-diamine]
33 | CN1CCCN(CCOc2ccc(CCNc3nc(N)n4nc(-c5ccco5)nc4n3)cc2)CC1 [Example 286, 2-(Furan-2-yl)-N5-(4-(2-(4-methyl-1,4-diazepan-1-yl)ethoxy)phenethyl)-[1,2,4]triazolo[1,5-a][1,3,5]triazine-5,7-diamine]
12.7 | Nc1nc(NCCc2ccccn2)nc2nc(-c3ccco3)nn12 [Example 302, 2-(Furan-2-yl)-N5-(2-(pyridin-2-yl)ethyl)-[1,2,4]triazolo[1,5-a][1,3,5]triazine-5,7-diamine]
19.6 | CN(C)CCNc1ccc(CCNc2nc(N)n3nc(-c4ccco4)nc3n2)cc1 [Example 254, N5-(4-((2-(Dimethylamino)ethyl)amino)phenethyl)-2-(furan-2-yl)-[1,2,4]triazolo[1,5-a][1,3,5]triazine-5,7-diamine]
16 | Nc1nc(NCCc2ccc(OCCOCCN3CCOCC3)cc2)nc2nc(-c3ccco3)nn12 [Example 94, 2-(Furan-2-yl)-N5-(4-(2-(2-morpholinoethoxy)ethoxy)phenethyl)-[1,2,4]triazolo[1,5-α][1,3,5]triazine-5,7-diamine]
31.3 | COCCOCCOCCOCCOCCOCCOc1ccc(CCNc2nc(N)n3nc(-c4ccco4)nc3n2)cc1 [Example 78, N5-(4-(2,5,8,11,14,17-Hexaoxanonadecan-19-yloxy)phenethyl)-2-(furan-2-yl)-[1,2,4]triazolo[1,5-α][1,3,5]triazine-5,7-diamine]
40.7 | CN1CCN(CC(=O)Nc2ccc(CCNc3nc(N)n4nc(-c5ccco5)nc4n3)cc2)CC1 [Example 321, N-(4-(2-((7-Amino-2-(furan-2-yl)-[1,2,4]triazolo[1,5-a][1,3,5]triazin-5-yl)amino)ethyl)-phenyl)-2-(4-methylpiperazin-1-yl)acetamide]
32.3 | CN(CCOc1ccc(CCNc2nc(N)n3nc(-c4ccco4)nc3n2)cc1)Cc1cccnc1 [Example 284, 2-(Furan-2-yl)-N5-(4-(2-(methyl(pyridin-3-ylmethyl)amino)ethoxy)phenethyl)-[1,2,4]triazolo[1,5-a][1,3,5]triazine-5,7-diamine]
13.8 | Nc1nc(NCCc2ccc(NC(=O)CCN3CCC3)cc2)nc2nc(-c3ccco3)nn12 [Example 313, N-(4-(2-((7-Amino-2-(furan-2-yl)-[1,2,4]triazolo[1,5-a][1,3,5]triazin-5-yl)amino)ethyl)-phenyl)-3-(azetidin-1-yl)propanamide]
18 | CN(C)CCOc1ccc(CCNc2nc(N)n3nc(-c4ccco4)nc3n2)cc1 [Example 13, N5-(4-(2-(Dimethylamino)ethoxy)phenethyl)-2-(furan-2-yl)-[1,2,4]triazolo[1,5-α][1,3,5]-triazine-5,7-diamine]
8.96 | Nc1nc(NCCc2ccc(OCC(F)(F)F)cc2)nc2nc(-c3ccco3)nn12 [Example 207, N5-(4-(2,2,2-Trifluoroethoxy)phenethyl)-2-(furan-2-yl)-[1,2,4]triazolo[1,5-a][1,3,5]triazine-5,7-diamine]
9 | Nc1nc(NCCc2ccc(OCCN3CCOCC3)cc2)nc2nc(-c3ccco3)nn12 [Example 82, 2-(Furan-2-yl)-N5-(4-(2-morpholinoethoxy)phenethyl)-[1,2,4]triazolo[1,5-α][1,3,5]triazine-5,7-diamine]
15.4 | Nc1nc(NCCc2ccc(OCCOCC(F)(F)F)cc2)nc2nc(-c3ccco3)nn12 [Example 314, 2-(Furan-2-yl)-N5-(4-(2-(2,2,2-trifluoroethoxy)ethoxy)phenethyl)-[1,2,4]triazolo[1,5-a][1,3,5]triazine-5,7-diamine]
10 | COCCOCCOc1ccc(CCNc2nc(N)n3nc(-c4ccco4)nc3n2)cc1 [Example 60, 2-(Furan-2-yl)-N5-(4-(2-(2-methoxyethoxy)ethoxy)phenethyl)-[1,2,4]triazolo[1,5-α][1,3,5]triazine-5,7-diamine]
25.4 | Nc1nc(NCCc2ccc(OCCN3CCCCCC3)cc2)nc2nc(-c3ccco3)nn12 [Example 51, N5-(4-(2-(Azepan-1-yl)ethoxy)phenethyl)-2-(furan-2-yl)-[1,2,4]triazolo[1,5-α][1,3,5]triazine-5,7-diamine]
30.4 | Nc1nc(NCCc2ccc(OCCN3CC[C@@H](F)C3)cc2)nc2nc(-c3ccco3)nn12 [Example 309, (R)-N5-(4-(2-(3-Fluoropyrrolidin-1-yl)ethoxy)phenethyl)-2-(furan-2-yl)-[1,2,4]triazolo[1,5-a][1,3,5]triazine-5,7-diamine]
35.2 | CN(C)[C@@H]1CCN(CCOc2ccc(CCNc3nc(N)n4nc(-c5ccco5)nc4n3)cc2)C1 [Example 214, N5-((R)-4-(2-(3-(Dimethylamino)pyrrolidin-1-yl)ethoxy)phenethyl)-2-(furan-2-yl)-[1,2,4]triazolo[1,5-a][1,3,5]triazine-5,7-diamine]
8 | Nc1nc(NCCc2ccc(OCc3cccnc3)cc2)nc2nc(-c3ccco3)nn12 [Example 32, 2-(Furan-2-yl)-N5-(4-(pyridin-3-ylmethoxy)phenethyl)-[1,2,4]triazolo[1,5-α][1,3,5]triazine-5,7-diamine]
14.3 | Nc1nc(NCCc2ccc(OCCCN3CCOCC3)cc2)nc2nc(-c3ccco3)nn12 [Example 86, 2-(Furan-2-yl)-N5-(4-(3-morpholinopropoxy)phenethyl)-[1,2,4]triazolo[1,5-α][1,3,5]triazine-5,7-diamine]
